Values of other authors, collected in US20140328945A1, “METHOD FOR STABILIZING AN ELECTROCHEMICALLY GENERATED SANITIZING SOLUTION HAVING A PREDETERMINED LEVEL OF FREE AVAILABLE CHLORINE AND pH” (Aquaxo, Inc., priority 2013, published 2014).

What was measured:
[1] = tested on: E. coli
[2] = tested on: A. aerogenes
[3] = tested on: S. clysvnteriae
[4] = tested on: S. typhosa
[5] = tested on: E. coli; conditions: 2.6 ppm, dilute bacterial suspensions, in about 5 minutes
[6] = tested on: Escherichia coli; conditions: E. coli exposed to Hypochlorous Acid

OCl [Hypochlorous Acid]
concentration required for 100% kill in 5 minutes [1]: 0.03 ppm
concentration required for 100% kill in 5 minutes [2]: 0.08 ppm
concentration required for 100% kill in 5 minutes [3]: 0.05 ppm
concentration required for 100% kill in 5 minutes [4]: 0.06 ppm
growth inhibition [5]: 100%
time to lose viability [6]: less than 100 ms
